Measured values published in patent publication US12037322B2, “AHR agonists” (Eli Lilly and Company, priority 2021, dated 2024).

Biological target: T1, hAHR (Homo sapiens, UniProt P35869)
T1 construct: expressed in transfected cells
T1 sequence (P35869 11-848): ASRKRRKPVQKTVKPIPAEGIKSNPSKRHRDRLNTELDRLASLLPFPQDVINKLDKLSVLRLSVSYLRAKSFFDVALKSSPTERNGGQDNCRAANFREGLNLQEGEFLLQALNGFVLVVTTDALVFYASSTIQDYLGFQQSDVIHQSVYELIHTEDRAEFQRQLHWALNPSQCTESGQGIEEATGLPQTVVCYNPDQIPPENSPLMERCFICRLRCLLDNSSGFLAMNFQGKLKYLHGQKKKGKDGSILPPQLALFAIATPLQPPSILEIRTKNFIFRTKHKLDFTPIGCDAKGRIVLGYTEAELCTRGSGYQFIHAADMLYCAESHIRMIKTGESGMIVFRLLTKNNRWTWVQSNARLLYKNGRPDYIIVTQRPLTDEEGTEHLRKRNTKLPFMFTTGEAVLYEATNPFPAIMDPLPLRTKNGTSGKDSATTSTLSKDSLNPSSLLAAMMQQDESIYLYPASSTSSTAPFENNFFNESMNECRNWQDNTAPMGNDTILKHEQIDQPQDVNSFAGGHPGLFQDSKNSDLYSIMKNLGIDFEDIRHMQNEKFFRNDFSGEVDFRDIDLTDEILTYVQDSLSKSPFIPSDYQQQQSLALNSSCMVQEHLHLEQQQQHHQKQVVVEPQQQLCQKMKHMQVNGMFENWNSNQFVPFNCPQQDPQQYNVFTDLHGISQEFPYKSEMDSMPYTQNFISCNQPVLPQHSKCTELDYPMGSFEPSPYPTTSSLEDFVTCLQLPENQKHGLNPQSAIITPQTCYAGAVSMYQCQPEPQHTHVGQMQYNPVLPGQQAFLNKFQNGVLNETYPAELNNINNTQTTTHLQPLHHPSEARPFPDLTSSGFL
Experiment: hAHR nuclear translocation assay
Assay type: cell-based
Conditions: Jump-In T-REx HEK293 cells expressing AhR-EGFP; 45 min incubation; ratio of EGFP intensity in nuclear over cytosol; 20-point curve
How it was run: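 Agonist potency derived by 4-parameter logistic fit of nuclear/cytosolic EGFP intensity ratio, imaged in fixed HEK293 cells expressing doxycycline-inducible AhR-EGFP. Cells saw compound for 45 min at 37° C in DMEM plus 0.1% BSA; 20-point twofold dilutions, 0.2% DMSO final.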

Row | Structure (SMILES) | EC50 [nM]
1 | Cn1c2c(cc(C(=O)Nc3ncccn3)c1=O)C(C)(C)CC2 [Example 46, 1,5,5-Trimethyl-2-oxo-N-pyrimidin-2-yl-6,7-dihydrocyclopenta[b]pyridine-3-carboxamide] | 31.5
2 | Cn1c2c(cc(C(=O)Nc3ccc(F)cn3)c1=O)CC(C)(C)C2 [Example 48, N-(5-Fluoro-2-pyridyl)-1,6,6-trimethyl-2-oxo-5,7-dihydrocyclopenta[b]pyridine-3-carboxamide] | 11.3
3 | Cc1nc2ccc(NC(=O)c3cc4c(n(C)c3=O)CCC(C)(C)C4)cc2o1 [Example 50, 1,6,6-Trimethyl-N-(2-methyl-1,3-benzoxazol-6-yl)-2-oxo-7,8-dihydro-5H-quinoline-3-carboxamide] | 8.27
4 | Cn1c2c(cc(C(=O)Nc3ccccc3)c1=O)COC(C)(C)C2 [Example 51, 1,7,7-Trimethyl-2-oxo-N-phenyl-5,8-dihydropyrano[4,3-b]pyridine-3-carboxamide] | 4.35
5 | CC1CCc2cc(C(=O)Nc3ccccc3)c(=O)n(C)c21 (stereo not drawn) [Example 52, 1,7-Dimethyl-2-oxo-N-phenyl-6,7-dihydro-5H-cyclopenta[b]pyridine-3-carboxamide] | 6.4
6 | C[C@@H]1CCc2c1cc(C(=O)Nc1ccccc1)c(=O)n2C [Example 66, (5R)-1,5-Dimethyl-2-oxo-N-phenyl-6,7-dihydro-5H-cyclopenta[b]pyridine-3-carboxamide] | 0.525
7 | C[C@H]1CCc2c1cc(C(=O)Nc1ccccc1)c(=O)n2C [Example 67, (5S)-1,5-Dimethyl-2-oxo-N-phenyl-6,7-dihydro-5H-cyclopenta[b]pyridine-3-carboxamide] | 0.5
8 | CC1Cc2cc(C(=O)Nc3ncccn3)c(=O)n(C)c2C1 (stereo not drawn) [Example 79, 1,6-Dimethyl-2-oxo-N-pyrimidin-2-yl-6,7-dihydro-5H-cyclopenta[b]pyridine-3-carboxamide] | 20.3
9 | Cn1c2c(cc(C(=O)Nc3ncccn3)c1=O)CCCC2 [Example 103, 1-Methyl-2-oxo-N-pyrimidin-2-yl-5,6,7,8-tetrahydroquinoline-3-carboxamide] | 27
10 | Cn1c2c(cc(C(=O)Nc3ccccc3)c1=O)CC(C)(C)CC2 [Example 105, 1,6,6-Trimethyl-2-oxo-N-phenyl-7,8-dihydro-5H-quinoline-3-carboxamide] | 0.64
11 | Cn1c2c(cc(C(=O)Nc3ccccc3)c1=O)CCC2 [Example 108, 1-Methyl-2-oxo-N-phenyl-6,7-dihydro-5H-cyclopenta[b]pyridine-3-carboxamide] | 2.5
12 | Cn1c2c(cc(C(=O)Nc3ccccc3)c1=O)CCCCC2 [Example 109, 1-Methyl-2-oxo-N-phenyl-6,7,8,9-tetrahydro-5H-cyclohepta[b]pyridine-3-carboxamide] | 1.04
13 | Cn1c2c(c(O)c(C(=O)Nc3ccccc3)c1=O)CC(C)(C)CC2 [Example 110, 4-Hydroxy-1,6,6-trimethyl-2-oxo-N-phenyl-7,8-dihydro-5H-quinoline-3-carboxamide] | 2.27
14 | CC(C)CCNC(=O)c1c(O)c2c(n(C)c1=O)CCCC2 [Example 111, 4-Hydroxy-N-isopentyl-1-methyl-2-oxo-5,6,7,8-tetrahydroquinoline-3-carboxamide] | 10.3

Continued, values first:

Row | EC50 [nM] | Structure (SMILES)
15 | 0.803 | Cn1c2c(cc(C(=O)Nc3ccccc3)c1=O)CC(C)(C)C2 [Example 47, 1,6,6-Trimethyl-2-oxo-N-phenyl-5,7-dihydrocyclopenta[b]pyridine-3-carboxamide]
16 | 2.03 | Cn1c2c(cc(C(=O)Nc3ccc(F)cn3)c1=O)CC(C)(C)CC2 [Example 49, N-(5-Fluoro-2-pyridyl)-1,6,6-trimethyl-2-oxo-7,8-dihydro-5H-quinoline-3-carboxamide]
17 | 19 | C[C@@H]1CCc2c1cc(C(=O)Nc1ncco1)c(=O)n2C [Example 74, (5R)-1,5-Dimethyl-N-oxazol-2-yl-2-oxo-6,7-dihydro-5H-cyclopenta[b]pyridine-3-carboxamide]
18 | 17.7 | C[C@H]1CCc2c1cc(C(=O)Nc1ncco1)c(=O)n2C [Example 75, (5S)-1,5-Dimethyl-N-oxazol-2-yl-2-oxo-6,7-dihydro-5H-cyclopenta[b]pyridine-3-carboxamide]
19 | 0.502 | Cn1c2c(cc(C(=O)Nc3ccccc3)c1=O)CCCC2 [Example 104, 1-Methyl-2-oxo-N-phenyl-5,6,7,8-tetrahydroquinoline-3-carboxamide]
20 | 25.9 | Cn1c2c(cc(C(=O)Nc3ccccc3)c1=O)COCC2 [Example 106, 1-Methyl-2-oxo-N-phenyl-7,8-dihydro-5H-pyrano[4,3-b]pyridine-3-carboxamide]
21 | 108 | CCN1CCc2c(cc(C(=O)Nc3ccccc3)c(=O)n2C)C1 [Example 107, 6-Ethyl-1-methyl-2-oxo-N-phenyl-7,8-dihydro-5H-1,6-naphthyridine-3-carboxamide]
